Data from article PMC6389498, “Control of Bacterial Virulence through the Peptide Signature of the Habitat” (Cell Reports, 2019).
≈ marks a conversion by molar mass, not a printed value. Like-named read-outs stand apart in the source and are kept apart here. Residues, ends and D or L forms follow the SMILES beside them.

Legend:
L. monocytogenes P14 [1] = format: cell-based, Listeria monocytogenes
[2] = tested on: PrfA-dependent expression (PrfA-regulated hly promoter, luxABCDE reporter); assay: Phly-lux reporter of PrfA-dependent gene expression, opp (oppF::Tn) or ΔgshF mutant; format: cell-based, Listeria monocytogenes; details: for Rescue of PrfA phenotype of opp mutant: opp mutant in BHI-Amb, GSH 1 mM, L-cysteine at the CDM concentration
Description: (§1) Listeria were routinely grown in porcine BHI (BD-Difco) and Escherichia coli in Luria-Bertani (LB) media, with 1% agar for solid cultures. For adsorbent-treated BHI agar, 1% (w/v) Amberlite XAD4 resin (Sigma-Aldrich) or 0.5% (w/v) activated charcoal powder (Merck) was added to the medium prior to autoclaving. For fluid Amberlite XAD4-treated BHI cultures (BHI-Amb), the resin was aseptically removed after autoclaving to avoid interference with optical density (OD) readings. Chemically defined CDM is a modification of the improved minimal medium (IMM) of [Phan-Thanh and Gormon (1997)], with the following composition: 6.56 g/L […], 30.96 g/L NaHPO4 7H2O, 0.41 g/L MgSO4, 88 mg/L ferric citrate, 0.1 g/L each of the (L-) amino acids leucine, isoleucine, valine, methionine, arginine, cysteine, histidine and tryptophan, 0.6 g/L L-glutamine, 2.5 mg/L adenine, 0.5 mg/L biotin, 5 mg/L riboflavin, 1 mg/L each of thiamine, pyridoxal, para-aminobenzoic acid, calcium panthothenate and nicotinamide, 5 μg/L thioctic acid and 4.5 g/L glucose. CDM was used freshly prepared from filter-sterilized stock solutions stored at 4°C (except cysteine, glutamine, biotin and ferric citrate solutions, kept at –20°C; and phosphates, MgSO4 and glucose, at room temperature). Antibiotic supplements (μg/mL) were as follows (lower values for Listeria, others for E. coli or both): erythromycin 5 or 250, chloramphenicol 7.5 or 20, spectinomycin 100, carbenicillin 100. All incubations were carried out at 37°C, with 180 rpm orbital shaking for fluid cultures, unless stated otherwise. GSH was kept in reduced state with 2 mM Tris[2-carboxyethyl]phosphine hydrochloride (TCEP) in the stock solution. Chemicals and oligonucleotides were from Sigma-Aldrich unless otherwise indicated.
PrfA-dependent gene expression was quantitatively analyzed throughout the L. monocytogenes growth curve using a chromosomally integrated luxABCDE operon under the control of the PrfA-regulated hly promoter ([Bron et al., 2006]). Overnight bacterial cultures were washed, resuspended in PBS and used to inoculate fresh medium to an initial OD at 600 nm (OD600) ≈0.02-0.05. Triplicate 200-μl aliquots were transferred to opaque 96-well plates with clear bottom (ThermoScientific) and OD600 and luminescence readings taken every 30 min during incubation in an automated microplate reader (FLUOstar Omega, BMG Labtech). Bioluminescence values were normalized to growth at each time point. […] The number of transcripts was calculated by interpolation of threshold cycle (CT) values of cDNA amplifications in a standard regression curve generated from samples of known DNA concentration. […]

[3] = tested on: PrfA-dependent expression (PrfA-regulated hly promoter, luxABCDE reporter); assay: Phly-lux reporter of PrfA-dependent gene expression, wild-type P14; format: cell-based, Listeria monocytogenes; details: for PrfA downregulation (repression of Phly-lux expression): wild-type P14 in regular CDM (0.8 mM Cys), 1 mM peptide vs no-peptide control, 37°C, maximum normalized luminescence, means of three triplicate experiments
Description: as §1
PrfA-dependent gene expression was quantitatively analyzed throughout the L. monocytogenes growth curve using a chromosomally integrated luxABCDE operon under the control of the PrfA-regulated hly promoter ([Bron et al., 2006]). Overnight bacterial cultures were washed, resuspended in PBS and used to inoculate fresh medium to an initial OD at 600 nm (OD600) ≈0.02-0.05. Triplicate 200-μl aliquots were transferred to opaque 96-well plates with clear bottom (ThermoScientific) and OD600 and luminescence readings taken every 30 min during incubation in an automated microplate reader (FLUOstar Omega, BMG Labtech). Bioluminescence values were normalized to growth at each time point. RT-qPCR transcription analysis was performed on total RNA samples extracted from mid-exponential L. monocytogenes cultures (OD600 ≈0.2-0.3 for BHI media) using RNeasy mini kit (QIAGEN) as previously described ([Deshayes et al., 2012]). The number of transcripts was calculated by interpolation of threshold cycle (CT) values of cDNA amplifications in a standard regression curve generated from samples of known DNA concentration. Expession data were normalized by dividing the number of transcripts of the test gene by the geometric mean of the number of transcripts of the reference housekeeping genes rpoB and ldh ([Deshayes et al., 2012]). See Table S3 for oligonucleotides used.

PrfA [4] = target: T1, PrfA (Listeria monocytogenes serovar 1/2a, UniProt P22262); assay: biochemical; format: binding; parameters: His tag (inferred from pET28a vector and nickel-column purification); made in house; host or cells: E. coli BL21; details: for Binding to PrfA detected by ITC: ITC with purified PrfA, free L-Leu at 1 mM
[5] = target: T2, PrfA^WT binding to the PplcA/hly PrfA box (Listeria monocytogenes serovar 1/2a, UniProt P22262); assay: Biolayer interferometry of PrfA-DNA binding, PrfAWT; format: biochemical; details: BLI, PrfA^WT-ligand mixes at 1:100 molar ratio, 50 mM Tris-Cl pH 7.5, 300 mM NaCl, 0.05 Tween 20; at least two experiments
T2 construct: His tag (inferred from pET28a vector and nickel-column purification); made in house; host or cells: E. coli BL21
Description: Bacterial pellets of IPTG-induced cultures of E. coli BL21(pET28aprfA^WT) ([Deshayes et al., 2012]; Table S2) were resuspended in lysis buffer (50 mM Tris pH 7.5, 300 mM NaCl, 20 mM imidazole) and lysed with an EmulsiFlex homogenizer. After affinity chromatography on a HiTrap HP nickel column in an AKTA system (GE Healthcare), PrfA-containing fractions were pooled together, loaded on a HiTrap Heparin HP column and then on a Superdex 75 Gel Filtration column to remove nucleic acid and protein contaminants. The buffer used for the gel filtration and storage was 50 mM Tris pH 7.5, 300 mM NaCl. Fluorescence-based thermal shift assays were performed in a real-time PCR instrument (Bio-Rad) using 25 μL triplicate samples containing 10 μΜ recombinant PrfA, 5 × SyprOrange (Invitrogen) and 1 mM synthetic peptide. Isothermal Titration Calorimetry (ITC) experiments were performed in a GE MicroCal iTC200 system (GE Healthcare). PrfA was changed to 50 mM Tris pH 7.5, 500 mM NaCl buffer and 100 μΜ of PrfA protein injected into the cell. […] Data were analyzed with the inbuilt software of the ITC apparatus using a one-site model. The specific DNA-binding activity of PrfA was measured by biolayer interferometry (BLI) with a FortéBio Octet^RED 96 apparatus using a biotinylated double-stranded oligonucleotide containing the PplcA/hly PrfA box (Table S3). […]

PrfA [6] = target: T1, PrfA; format: binding; parameters: His tag (inferred from pET28a vector and nickel-column purification); made in house; host or cells: E. coli BL21
PrfA [7] = target: T1, PrfA; details: read-out: Kd for PrfA; ref Reniere et al., 2015; cited from earlier work
L. monocytogenes P14 [8] = assay: Fosfomycin MIC; format: cell-based; details: Listeria monocytogenes

T1 sequence (P22262 whole entry): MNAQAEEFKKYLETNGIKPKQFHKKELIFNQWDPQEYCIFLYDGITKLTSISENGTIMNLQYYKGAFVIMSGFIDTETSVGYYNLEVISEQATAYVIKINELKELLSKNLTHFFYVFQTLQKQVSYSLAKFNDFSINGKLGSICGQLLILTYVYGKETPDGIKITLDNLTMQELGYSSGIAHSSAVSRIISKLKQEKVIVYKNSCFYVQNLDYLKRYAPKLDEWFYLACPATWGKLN
T2 sequence (P22262 whole entry): as above

## N[C@@H](CS)C(=O)O [Cys, L-cysteine]
L. monocytogenes P14 [1]; CDM, wild-type and opp bacteria
  Minimum concentration for eugonic growth: ≈ 0.2 mM
L. monocytogenes P14 [1]; Cys-deplete CDM supplemented with increasing free Cys
  Concentrations that inhibit P14 growth: ≥ 12800 µM
[2]
  Rescue of PrfA phenotype of opp mutant: Rescue of opp mutant
[3]; wild-type in CDM with limiting Cys (0.1 mM), against fixed 0.25 mM Leu peptide
  Amount required to completely cancel LL/LLL-mediated repression: 6.4 mM

## RGDC [Cys-containing synthetic tetrapeptide transported by Opp]
[2]; opp mutant, CDM without Cys supplemented with 0.32 mM RGDC peptide
  Growth and PrfA-dependent expression with peptide as Cys source: not
[3]; wild-type in CDM with limiting Cys (0.1 mM), against fixed 0.25 mM LL or LLL
  Concentration that completely cancelled LL/LLL-mediated repression: 80 µM
[3]; wild-type, CDM without Cys supplemented with 0.32 mM RGDC peptide
  Growth and PrfA-dependent expression with peptide as Cys source: promoted growth and PrfA-dependent expression

## CC(C)C[C@H](N)C(=O)O [free Leu, leucine]
PrfA [4]
  Binding to PrfA detected by ITC: no binding was detected
[3]
  PrfA downregulation (repression of Phly-lux expression): not inhibitory
[5]
  Inhibition of PrfA-DNA binding: not

## ASSLLLVG [listerial derived octapeptide, putative peptide pheromone pPplA]
PrfA [6]
  Change in melting temperature (Tm) of purified PrfA: significant drop in the Tm
[3]
  PrfA downregulation (repression of Phly-lux expression): 88%

## N[C@@H](CCC(=O)N[C@@H](CS)C(=O)NCC(=O)O)C(=O)O [GSH, γ-L-Glutamyl-L-cysteinylglycine]
PrfA [4]
  Binding to PrfA detected by ITC: undetectable by ITC
[2]
  Rescue of PrfA phenotype of opp mutant: fully restored the parental PrfA^+ phenotype
[2]; ΔgshF in BHI-Amb, 1 mM exogenous GSH (even at 8 mM, data not shown)
  Reversal of PrfA– phenotype of ΔgshF mutant: did not revert the PrfA^– phenotype
PrfA [7]
  Kd: ~4000 µM

## C[C@@H]1O[C@@H]1P(=O)(O)O [fosfomycin]
L. monocytogenes P14 [8]
  MIC: 12 to 32 µg/mL (≈ 86.9 to 232 µM)

## CC(C)C[C@H](NC(=O)[C@@H](N)CC(C)C)C(=O)O [LL, L-leucylleucine]
PrfA [4]
  Kd: ~25 µM

## SQNPYPIV [known listerial Opp substrate]
[3]
  PrfA downregulation (repression of Phly-lux expression): 59%

## RKDVY [known listerial Opp substrate]
[3]
  PrfA downregulation (repression of Phly-lux expression): no effect

## KLLLLK [known listerial Opp substrate]
[3]
  PrfA downregulation (repression of Phly-lux expression): 96%

## CC(C)C[C@H](NC(=O)[C@H](CC(C)C)NC(=O)[C@@H](N)CC(C)C)C(=O)O [LLL] (H-Leu-Leu-Leu-OH)
PrfA [4]
  Kd: ~25 µM
